Laboratory results from article PMC12185579, “Impact of nephrotoxins and oxidants on survival and transport function of hiPSC-derived renal proximal tubular cells” (Archives of Toxicology, 2025).
Several values for one entry are separate records, joined by “and”; a condition that tells them apart may be missing. Identical values can stand only once. Like-named read-outs stand apart in the source and are kept apart here.

Assays:
diffD3 [1] = assay: TUNEL assay (apoptosis), diffD3; assay type: cell-based, human; conditions: diffD3, 24 h, IC20 and IC50 of the hiPSC
Description: (§1) To verify whether the substances analyzed induce apoptosis in the cells at different stages of differentiation, the TUNEL (terminal deoxynucleotidyl transferase-mediated dUTP-fluorescein nick-end labeling) assay was performed with cells grown on coverslips using the In-Situ Cell Death Detection Assay Kit (Roche GmbH, Grenzach-Wyhlen, Germany) according to the manufacturer’s instructions. The TUNEL assay visualizes free hydroxyl groups from fragmented DNA produced during apoptosis by labeling them with modified nucleotides through an enzymatic reaction (Gavrieli et al. [1992]). The coverslips were mounted with […]® Antifade Mounting Medium containing DAPI and sealed with nail polish. Fluorescence images were acquired using a fluorescence microscope (Olympus BX43 Upright Microscope, Olympus, Shinjuku, Tokyo, Japan) at 200-fold magnification and analyzed using ImageJ 1.51j8 (Schneider et al. [2012]). TUNEL-positive cells were referenced to the total number of cells and normalized to the untreated control.

diffD9 [2] = assay: EdU incorporation (proliferation), diffD9; assay type: cell-based, human; conditions: diffD9, 24 h, hiPSC's IC20 and IC50
Description: (§2) To investigate the effect of toxins on the proliferation rate, the incorporation of EdU into S-phase cells was determined using the EdU-Click 488 assay according to the manufacturer’s protocol (Baseclick GmbH, Tutzing, Germany) as reported earlier (Mboni-Johnston et al. [2023]).

diffD9 [3] = assay: TUNEL assay (apoptosis), diffD9; assay type: cell-based, human; conditions: diffD9, 24 h, IC20 and IC50 of the hiPSC (CisPt: a higher concentration added)
Description: as §1

[4] = system: senescence-associated genes (β-GAL, IL-8, p21) in diffD9; assay: RT-PCR senescence-associated genes, diffD9; assay type: cell-based, human; conditions: diffD9, 48 h after a 24 h treatment
Description: (§3) RNA was isolated using the RNeasy Mini Kit and RNase-free DNase Set (Qiagen, Venlo, The Netherlands) according to the manufacturer’s protocol as reported previously (Mboni-Johnston et al. [2023]). The primer sequences (Table S1, supplement) used for the mRNA expression analyses were designed with the help of NCBI (https://www.ncbi.nlm.nih.gov/nuccore/) and validated for specificity. At the end of the run, data were analyzed using CFX Manager software (v3.1, Bio-Rad Laboratories, Hercules, CA, USA) according to the manufacturer’s instructions. All samples were run with three technical replicates. The Cq values obtained for the genes of interest were first normalized to the mean Cq values obtained for the housekeeping genes ACT-β and RPL-32 and then for the control samples and expressed as a fold of this mean value. Changes in gene expression of ≤ 0.5- and ≥ twofold were considered biologically relevant.

[5] = system: stem cell markers, PTEC markers and transporters mRNA in diffD9; assay: RT-PCR marker gene expression at diffD9 after treatment at diffD3; assay type: cell-based, human; conditions: for expression of megalin and cubilin: treated at diffD3, analyzed at diffD9
Description: as §3

[6] = system: senescence-associated genes (β-GAL, IL-8, p21) in diffD3; assay: RT-PCR senescence-associated genes, diffD3; assay type: cell-based, human; conditions: diffD3, 48 h after a 24 h treatment
Description: as §3

[7] = system: senescence-associated genes (β-GAL, IL-8, p21) in hiPSC; assay: RT-PCR senescence-associated genes, hiPSC; assay type: cell-based, human; conditions: 48 h after a 24 h treatment
Description: as §3

diffD9 [8] = assay: FITC-albumin uptake at diffD9 after treatment at diffD3; assay type: cell-based, human; conditions: treated 24 h at diffD3 with hiPSC's IC20 and IC50, analyzed at diffD9
Description: Cells were incubated with serum-free medium with/without 100 µg/ml FITC-albumin for 2 h at 37 °C, and uptake was stopped with ice-cold PBS. Cells were then harvested from Matrigel-coated wells with trypsin/EDTA, and albumin uptake was analyzed by flow cytometry [Becton Dickinson, Accuri™ C6 plus (Heidelberg, Germany)] as previously reported (Mboni-Johnston et al. [2023]).

hiPSC [9] = assay: EdU incorporation (proliferation), hiPSC; assay type: cell-based, human; conditions: 24 h, hiPSC's IC20 and IC50
Description: as §2

hiPSC [10] = assay: TUNEL assay (apoptosis), hiPSC; assay type: cell-based, human; conditions: 24 h, IC20 and IC50 of the hiPSC
Description: as §1

hiPSC, diffD3 and diffD9 [11] = assay: Cell viability of all differentiation stages, with and without pan-caspase inhibitor QVD; assay type: cell-based, human; conditions: 10 µM QVD
Description: (§4) After 24 h of exposure, the viability of the undifferentiated, differentiating, and differentiated cells was examined using the Alamar Blue Assay (O'Brien et al. [2000]), as described previously (Mboni-Johnston et al. [2023]). The relative viability of the cells in the corresponding untreated controls was set to 100%.

diffD3 [12] = assay: EdU incorporation (proliferation), diffD3; assay type: cell-based, human; conditions: diffD3, 24 h, hiPSC's IC20 and IC50
Description: as §2

hiPSC [13] = system: hiPSC; design: method as in Mboni-Johnston et al. [2023]; conditions: as given in Fig. 7 legend, value from former study ref Mboni-Johnston et al. [2023], cited from earlier work
diffD9 [14] = system: diffD9; design: method as in Mboni-Johnston et al. [2023]; conditions: ref Mboni-Johnston et al. [2023]; cited from earlier work
hiPSC, diffD3 and diffD9 [15] = system: hiPSC, diffD3 and diffD9; design: method as in Mboni-Johnston et al. [2023]; conditions: diffD3, differentiated PTELC ref Mboni-Johnston et al. [2023]; cited from earlier work
[16] = system: diffD9 (hiPSC differentiated into PTELC); assay: Alamar Blue cell viability, differentiated cells day 9; assay type: cell-based, human; conditions: diffD9, 24 h treatment; for IC20: read-out: IC20 (inhibitory concentration where 20% of the cells are dead)
Description: as §4

diffD9 [17] = assay: FITC-albumin uptake (flow cytometry) in diffD9 treated at diffD9; assay type: cell-based, human; conditions: diffD9, 24 h treatment (menadione: IC50)
Description: The effect of toxins on the transport function of hiPSC-derived PTELC was examined by adding fluorescently labeled bovine serum albumin (FITC-BSA) (Sigma-Aldrich, 10 mg/ml) to the culture medium. Cells were incubated with serum-free medium with/without 100 µg/ml FITC-albumin for 2 h at 37 °C, and uptake was stopped with ice-cold PBS. Cells were then harvested from Matrigel-coated wells with trypsin/EDTA, and albumin uptake was analyzed by flow cytometry [Becton Dickinson, Accuri™ C6 plus (Heidelberg, Germany)] as previously reported (Mboni-Johnston et al. [2023]).

[18] = system: PTEC markers and transporters mRNA in diffD9; assay: RT-PCR marker gene expression in diffD9 treated at diffD9; assay type: cell-based, human; conditions: diffD9, 24 h; for Aqp-1 mRNA expression: IC20 and IC50, vs untreated diffD9; for Pept-1 mRNA expression: IC50 (tBHQ not statistically significant); for Meg (megalin) mRNA expression: Mena IC20 and IC50, tBHQ IC50 (not statistically significant)
Description: as §3

[19] = system: human liver cell line HepG2; design: method as in Chen and Cederbaum [1997]; conditions: HepG2, after 18 h of incubation ref Chen and Cederbaum [1997]; read-out: IC50 (cytotoxicity); cited from earlier work
[20] = system: diffD3 (hiPSC differentiating into PTELC); assay: Alamar Blue cell viability, differentiating cells day 3; assay type: cell-based, human; conditions: for IC50 of diffD3, fold lower than those of hiPSC and diffD9: Alamar Blue, 24 h; for IC50: Homo sapiens, diffD3, 24 h treatment
Description: as §4

hiPSC [21] = assay: Alamar Blue cell viability, undifferentiated hiPSC; assay type: cell-based, human; conditions: for IC20 / IC50: Homo sapiens; for IC20: read-out: hiPSC's IC20
Description: as §4

mammary epithelial cells = system: mammary epithelial cells; design: method as in Jin et al. [2016]; conditions: mammary epithelial cells ref Jin et al. [2016]; read-out: IC50 (cell viability); cited from earlier work
endothelial cells = system: endothelial cells; design: method as in Karimi et al. [2019]; conditions: endothelial cells ref Karimi et al. [2019]; read-out: IC50 (cell viability); cited from earlier work
[22] = as given in Fig. 7 legend, concentration used to treat diffD3 for 24 h
[23] = as given in Fig. 7 legend, concentration used to treat diffD3 for 24 h, read-out: hiPSC's IC50
[24] = hiPSC, 24 h treatment, read-out: IC50 (cell viability, Alamar Blue)

Structure (SMILES): N.N.[Cl][Pt][Cl] [CisPt, cisplatin]
- frequency of TUNEL-positive cells (diffD3 [1]): increased in a dose-dependent manner
- EdU incorporation (cells in S-phase) vs untreated control (diffD9 [2]): not affected
- frequency of TUNEL-positive cells (diffD9 [3]): increased in a dose-dependent manner
- mRNA expression of senescence-associated genes (β-GAL, IL-8, p21) [4]: no extensive expression
- long-term changes in marker transcripts ([5]; treated 24 h at diffD3 with iPSCs' IC20, analyzed at diffD9): all but two transcripts being significantly reduced
- mRNA expression of senescence-associated genes (β-GAL, IL-8, p21) [6]: only p21 was significantly higher expressed in diffD3
- mRNA expression of senescence-associated genes (β-GAL, IL-8, p21) [7]: no extensive expression
- albumin uptake (diffD9 [8]): strong effect
- EdU incorporation (proliferation) vs untreated control (hiPSC [9]): inhibited the likely proliferation-associated EdU incorporation in hiPSC in a dose-dependent manner
- frequency of TUNEL-positive cells (hiPSC [10]): increased in a dose-dependent manner
- cell viability under co-treatment with pan-caspase inhibitor QVD vs mono-treatment (hiPSC, diffD3 and diffD9 [11]): significant restoration of cell viability to almost control level
- EdU incorporation (proliferation) vs untreated control (diffD3 [12]): not affected
- IC20 (hiPSC [13]; read-out: hiPSC's IC20): 0.3 µM
- IC50 (hiPSC [13]; read-out: hiPSC's IC50): 1 µM
- albumin uptake capacity of PTELC (diffD9 [14]): reduced the albumin uptake capacity
- relative sensitivity of differentiation stages (hiPSC, diffD3 and diffD9 [15]): hiPSC and diffD3 were more sensitive to CisPt than differentiated PTELC

Structure (SMILES): CC1=CC(=O)c2ccccc2C1=O [Mena, menadione]
- frequency of TUNEL-positive cells (diffD3 [1]): significantly increased
- EdU incorporation (cells in S-phase) vs untreated control (diffD9 [2]): no significant differences in EdU incorporation
- mRNA expression of senescence-associated genes (β-GAL, IL-8, p21) [4]: IL-8 levels significantly increased
- expression of megalin and cubilin [5]: low but significant effect
- IC50 ([16]; Homo sapiens, 24 h): 17.6 µM
- IC20 ([16]; Homo sapiens): 11 µM
- IC50 [16]: 17 µM
- IC50 ([16]; listed as Menadione): 18 µM
- albumin transport (FITC-albumin uptake) (diffD9 [17]): significant decrease
- albumin uptake (diffD9 [8]): no effect on albumin transport itself
- Nanog mRNA expression ([18]; IC20): significantly increased
- Aqp-1 mRNA expression [18]: significant and dose-dependent decrease
- CD13 mRNA expression ([18]; IC50): increased significantly
- Pept-2 mRNA expression ([18]; IC50): reduced expression
- Pept-1 mRNA expression [18]: increased significantly
- Meg (megalin) mRNA expression [18]: significant and dose-dependent decrease
- IC50 [19]: 18 to 19 µM
- EdU incorporation (proliferation) vs untreated control (hiPSC [9]): no significant differences in EdU incorporation
- EdU incorporation (proliferation) vs untreated control (diffD3 [12]): inhibited proliferation
- IC50 of diffD3, fold lower than those of hiPSC and diffD9 [20]: about four
- IC50 [20]: 4.1 µM
- IC20 (hiPSC [21]; [22]): 3 µM
- IC50 (hiPSC [21]; [23]): 6 µM
- IC50 (hiPSC [21]; [24]): 16.2 µM

Structure (SMILES): CC(C)(C)c1cc(O)ccc1O [tBHQ, tert-butylhydroquinone]
- frequency of TUNEL-positive cells (diffD3 [1]): significantly increased
- EdU incorporation (cells in S-phase) vs untreated control (diffD9 [2]): no significant differences in EdU incorporation
- expression of megalin and cubilin [5]: neither showed a relevant effect
- IC50 ([16]; Homo sapiens, 24 h): 34.5 µM
- IC20 ([16]; Homo sapiens): 15 µM
- IC50 [16]: 34 µM and 35 µM
- mRNA expression of senescence-associated genes (β-GAL, IL-8, p21) [6]: IL-8 levels significantly increased
- albumin transport (FITC-albumin uptake) (diffD9 [17]): increased the transport
- Aqp-1 mRNA expression [18]: significant dose-dependent decrease
- Pept-1 mRNA expression [18]: increased above twofold
- Cad-16 mRNA expression ([18]; IC50, statistically significant): increased above twofold
- Meg (megalin) mRNA expression [18]: increased above twofold
- IC50 (mammary epithelial cells): 50 µM
- EdU incorporation (proliferation) vs untreated control (hiPSC [9]): no significant differences in EdU incorporation
- EdU incorporation (proliferation) vs untreated control (diffD3 [12]): inhibited proliferation
- IC50 of diffD3, fold lower than those of hiPSC and diffD9 [20]: 7- to 12
- IC50 [20]: 2.8 µM
- sensitivity of hiPSC compared to diffD9 (hiPSC [21]; Alamar Blue, 24 h): twice as sensitive
- IC20 (hiPSC [21]; [22]): 4 µM
- IC50 (hiPSC [21]; [23]): 8 µM
- IC50 (hiPSC [21]; [24]): 18.5 µM
- IC50 (endothelial cells): 60 µM
